Experimental data from patent publication US20040009899A1, “Treating dominant disorders” (priority 2002, published 2004).

Legend:
[1] = system: endogenous mouse Hdh allele; assay: Western immunoblot of endogenous mouse htt expression in PNA-treated R6/1 mice; assay type: in vivo; conditions: any tissue examined (striatum, liver), any tested time point (4 or 6 days)
Protocol: (§1) Cannulation and microsurgery—method 1: B6CBA, R6/1, and R6/2 mice were obtained from The Jackson Laboratory (Bar Harbor, Me.). Mice were anesthetized via intraperitoneal (i.p.) injection with 100 mg/kg of a ketamine/xylazine solution containing 8 mg/mL ketamine and 1 mg/mL xylazine in 0.9% saline. Once anesthetized, each mouse was cannulated. Each anesthetized mouse was placed in a Stoelting Stereotaxic Frame with a mouse adapter (Stoelting Instruments, Wood Dale, Ill.). An incision was made using a scalpel, and the skin and tissue were pulled back with swabs to reveal the skull. The cannulation site was positioned for optimum access to the ventricle, at coordinates AP −0.2 mm, Horiz −1 mm from bregma. A cannula entry port and two bone screw ports were opened in the skull using a Dremel Flex Shaft Drill (Stoelting Instruments) with a 2.1 mm burr for the guide cannula port and a 0.7 mm burr for the bone screws (Fine Science Tools, Foster City, Calif.). Two 4.0 mm long bone screws (0.85 diameter) were placed far enough into the bone screw ports to fasten securely. […]
(§2) Following the treatment period, mice were anesthetized with ether and sacrificed by cervical dislocation. […] Following centrifugation, the supernatants were removed and protein concentrations were quantified by Bradford assays using a BSA standard. […]

GAPDH = assay: Western immunoblot of GAPDH (non-targeted gene) in PNA-treated R6/1 mice; assay type: in vivo, mouse; conditions: any animal tested
Protocol: Following the treatment period, mice were anesthetized with ether and sacrificed by cervical dislocation. Whole brains and livers were removed and placed in 0.9% saline. Striatum tissue was dissected from whole brains, and liver tissue was finely minced. The tissues were placed in separate 2 mL microfuge tubes on dry ice and then suspended in 20 volumes of RIPA buffer (50 mM Tris pH 8, 150 mM NaCl, 1 mM EDTA, 1 mM EGTA, 0.5% sodium deoxycholate, 0.1% SDS, 1% TritonX-100, 2 μg/mL leupeptin, 2 μg/mL aprotinin, 1 μg/mL pepstatin, 1 mM phenylmethylsulfonylfluoride) per gram of tissue. Suspended tissues were homogenized by sonication, and the homogenates were clarified by centrifugation at 12,000×g for 20 minutes at 4° C. Following centrifugation, the supernatants were removed and protein concentrations were quantified by Bradford assays using a BSA standard.
Immunoblotting: Supernatants from the tissue homogenates were mixed with 1/6 volume of 6×SDS sample buffer (350 mM Tris pH 6.8, 10% SDS, 30% glycerol, 15% 2-mercaptoethanol, 0.012% bromophenol blue). Equal amounts of protein were directly loaded onto 10% acrylamide/0.05% bisacrylamide gels without heat denaturation. […] Protein bands were detected on film by chemiluminescence. […]

human HD transgene = assay: Western immunoblot of human HD transgene (htt) expression in PNA-treated R6/1 mice; assay type: in vivo, mouse
Protocol: as §1, with “securely. After placing the bone screws, a cannula system (Plastics One, Roanoke, Va.) including a guide cannula (C315Gs-5/Spc), a dummy cannula (C313Dcs-5Spc), an injection cannula (C3151S-5.2/Spc), and a connector assembly (C313C) was placed in the guide cannula port. The guide cannula was positioned 1.5 mm into the brain using a stereotaxic needle and was secured to the bone screws and incision with dental cement. Once the dental cement hardened, the stereotaxic needle was removed and both the injection cannula and dummy cannula were placed within the guide cannula and secured to the connector assembly. Proper cannula placement was confirmed in several mice by injecting bromophenol blue dye into the ventricular space and noting that only the ventricle was stained.” for “securely.”
as §2

Substance: HDs: sense PNA oligomer, 14 residues, 5′-GGACTGCCGTGCCG-3′ (SEQ ID NO:3), specific for the expanded human HD allele (all peptide nucleic acid (PNA))
- effect on expression of the endogenous mouse Hdh allele [1]: Neither HDs nor HDscr had any effect
- inhibition of non-targeted genes such as GAPDH (GAPDH): No measurable inhibition
- effectiveness at inhibiting transgene expression relative to random, scrambled PNA (human HD transgene; 25 μg into the ventricle every other day for 4 or 6 days): significantly more effective
- effect on expression of the human transgene in the liver (human HD transgene; liver, direct injection into the brain, 4 or 6 days): little effect
- inhibition of human HD transgene expression (human HD transgene; striatum, 1 μL of 25 μg/μL into the ventricle every other day for 4 or 6 days, compared to untreated R6/1 controls): dramatic inhibition
